# Reference: US20250099487A1, “COMPOSITION FOR PREVENTING OR TREATING PULMONARY FIBROSIS, COMPRISING TAURODEOXYCHOLIC ACID OR PHARMACEUTICALLY ACCEPTABLE SALT THEREOF AS ACTIVE INGREDIENT” (SHAPERON INC., priority 2022, published 2025)
# How the values were obtained:
# IL-1β = experiment: Inhibition of IL-1β production in PMA-differentiated U937 macrophages induced with BzATP (ELISA); format: cell-based, human; details: for IC50: Homo sapiens, U-937, U937 macrophages, 12 h pretreatment, BzATP 300 μM 12 h
# Description: (§1) To evaluate the anti-inflammatory efficacy of HY209 and TUDCA, the human monocytic cell line U937 was treated with PMA (phorbol 12-myristate 13-acetate) to induce differentiation into macrophages.
# Specifically, the human monocytic cell line U937 was seeded at a density of 70,000 cells per well in a 96-well plate and cultured for 24 hours in RPMI1640 medium containing 50 nM PMA (phorbol 12-myristate 13-acetate) to induce differentiation into macrophages. The medium was then removed from each well, and HY209 or TUDCA was administered at varying concentrations (HY209: 1, 0.5, 0.25, 0.125, 0.0625, 0.0312, 0.0156, 0.0078 μM; TUDCA: 1000, 316, 100, 31.6, 10, 3.16, 0.316, 0.1, 0.0316, 0.01, 0.00316 μM) for 12 hours. Subsequently, BzATP (2′(3′)-O-(4-Benzoylbenzoyl)adenosine 5′-triphosphate) was added to each well to achieve a final concentration of 300 μM, and the cells were incubated for an additional 12 hours. The supernatants were then collected, and IL-1β levels were measured using an IL-1β ELISA kit (R&D Systems) according to the manufacturer's instructions (FIG. 7a).
# [1] = system: human lung fibroblast cell line MRC5; experiment: qPCR of fibrosis-related factors in TGF-β-treated MRC5 cells; format: cell-based; details: MRC5, TGF-β1 5 ng/mL, 48 hours
# Description: Specifically, the human lung fibroblast cell line MRC5 was seeded at a density of 2×10^5 cells per well in a 6-well plate and incubated overnight to allow cell attachment. Subsequently, the medium was removed, and the cells were treated with TGF-β1 at a concentration of 5 ng/mL along with HY209 or TUDCA at concentrations of 0, 0.1, 1, and 10 μM, and cultured for 48 hours before collecting the cells. Following this, RNA was extracted from the cells using the RNeasy Mini Kit (QIAGEN), and cDNA was synthesized using Maxime™ RT PreMix (LiliF Diagnostic). qPCR measurements were conducted using Power SYBR™ Green PCR Master Mix (Thermo Scientific) in accordance with the manufacturer's instructions. Additionally, primers specific for Col1α1, α-SMA, and PAI-1 were utilized to assess their expression, and GAPDH was measured as the internal standard.
# [2] = Body weight changes in bleomycin-induced idiopathic pulmonary fibrosis animal model; format: in vivo, C57BL/6 mice; details: HY209 administration group vs control group; oral BID Day 7-Day 21; measured daily
# Description: (§2) Specifically, 9-week-old C57BL/6 mice were purchased and allowed to adapt to their environment for one week before the experiment was conducted. The experimental animals were maintained under conditions of 22±2° C., 55±10% relative humidity, and a 12-hour light/dark cycle. Water was provided ad libitum, and sterilized feed was used, allowing free access to food.
# (§3) The pulmonary fibrosis group was orally administered a vehicle (0.5% CMC (carboxymethylcellulose) solution) at a dose of 10 mL/kg twice daily, while the experimental group was orally administered HY209 formulated in a 0.5% CMC solution to achieve final concentrations of 10, 30, and 60 mg/kg, also twice daily. The comparison group (Nintedanib administration group) was orally administered Nintedanib, formulated in a vehicle (0.1% Natrosol; Hydroxyethylcellulose solution) to achieve a final concentration of 60 mg/kg, twice daily. The pulmonary fibrosis group (Natrosol administration group) for comparison with the Nintedanib administration group received 10 mL/kg of 0.1% Natrosol solution orally twice daily. The control group was administered saline instead of bleomycin and received a vehicle (0.5% CMC (carboxymethylcellulose) solution) at a dose of 10 mL/kg orally twice daily.
# Specifically, the body weight of the mice in each group was measured daily throughout the course of the experiment.
# [3] = system: bleomycin-induced idiopathic pulmonary fibrosis animal model; experiment: Lung weight changes in bleomycin-induced idiopathic pulmonary fibrosis animal model; format: in vivo, C57BL/6 mice
# Description: Specifically, 9-week-old C57BL/6 mice were purchased and allowed to adapt to their environment for one week before the experiment was conducted. […] Water was provided ad libitum, and sterilized feed was used, allowing free access to food. […] The control group was administered saline instead of bleomycin and received a vehicle (0.5% CMC (carboxymethylcellulose) solution) at a dose of 10 mL/kg orally twice daily. Specifically, the mice in each group were sacrificed upon completion of the experiment, and their lungs were excised. The weights of the excised lungs were then measured.
# [4] = system: bleomycin-induced idiopathic pulmonary fibrosis animal model; experiment: Histopathological evaluation of pulmonary fibrosis (Crossman's Trichrome, Matsuse modification of the Ashcroft score); format: in vivo, C57BL/6 mice
# Description: Specifically, 9-week-old C57BL/6 mice were purchased and allowed to adapt to their environment for one week before the experiment was conducted. […] Water was provided ad libitum, and sterilized feed was used, allowing free access to food. […] The control group was administered saline instead of bleomycin and received a vehicle (0.5% CMC (carboxymethylcellulose) solution) at a dose of 10 mL/kg orally twice daily. Specifically, the mice in each group were sacrificed upon completion of the experiment, and their lungs were excised. The excised lungs were embedded in paraffin for histopathological evaluation and stained according to the Crossman's Trichrome method (Gray P. The Microtomist's Formulary and Guide. Published by Robert E. Krieger Publishing Co.). The histological changes in the lungs were assessed using the Matsuse modification of the Ashcroft score, as presented in Table 2 (Ashcroft H et al. J Clin Pathol (1988) 41:467-70; Matsuse T et al. Eur Respir J (1999) 13:71-77). [table]
# α-SMA = experiment: Immunohistochemical analysis of α-SMA area in lung tissue; format: in vivo, C57BL/6 mice
# Description: as §2, §3
# Specifically, the mice in each group were sacrificed upon completion of the experiment, and their lungs were excised. The excised lungs were embedded in paraffin for histopathological evaluation, and sections were obtained and mounted onto slides. Subsequently, the expression distribution of the fibrosis-related factor α-SMA in the lung tissue was evaluated.
# Immunohistochemical analysis of α-SMA was performed using polyclonal anti-α-SMA antibodies. Antigen retrieval was conducted using Target Retrieval Solution pH 6 (PT Link module, DAKO). […] The de novo accumulation level of α-SMA was evaluated using digital image analysis software (Visiopharm®). The results were expressed as the percentage (%) of the α-SMA area.
# TNF-α = experiment: Inhibition of TNF-α production in PMA-differentiated U937 macrophages induced with Pam2CSK4 (ELISA); format: cell-based, human; details: for IC50: Homo sapiens, U-937, U937 macrophages, Pam2CSK4 50 ng/mL, 4 hours
# Description: as §1
# Additionally, the human monocytic cell line U937 was cultured at a density of 5×10^6 cells in a 100 mm dish containing RPMI1640 medium supplemented with 4 nM PMA (phorbol 12-myristate 13-acetate) for 5 hours to induce differentiation into macrophages. The differentiated macrophages were then seeded into a 96-well plate at a density of 50,000 cells per well and incubated for 24 hours to allow for rest. Following this, the medium was replaced with serum-free medium, and the cells were cultured for an additional 12 hours. The medium was then removed from each well, and the cells were treated with 50 ng/mL of Pam2CSK4 (Pam2CysSerLys4) along with HY209 or TUDCA at varying concentrations (HY209: 10, 4, 2, 1, 0.5, 0.25, 0.125, 0.0625, 0.03125 μM; TUDCA: 100, 50, 25, 12.5, 6.25, 3.125, 1.562, 0.76 μM) for 4 hours. The supernatants were then collected, and TNF-α levels were measured using a TNF-α ELISA kit (R&D Systems) according to the manufacturer's instructions (FIG. 7b).
# [5] = 10 mg/kg oral BID Day 7-21, compared to the pulmonary fibrosis group
# [6] = 60 mg/kg oral BID Day 7-21, compared to the pulmonary fibrosis group
# [7] = 60 mg/kg oral BID Day 7-21, compared to the Natrosol administration group
SMILES,IC50 (IL-1β) [nM],Col1α1 expression ([1]; 0.1 μM),PAI-1 expression ([1]; 0.1 μM),α-SMA expression ([1]; 0.1 μM),Col1α1 expression ([1]; 1 μM),PAI-1 expression ([1]; 1 μM),α-SMA expression ([1]; 1 μM),PAI-1 expression ([1]; 10 μM),α-SMA expression ([1]; 10 μM),IC50 (TNF-α) [nM],further results
"C[C@H](CCC(=O)NCCS(=O)(=O)O)[C@H]1CC[C@H]2[C@@H]3CC[C@@H]4C[C@H](O)CC[C@]4(C)[C@H]3C[C@H](O)[C@]12C [HY209, sodium taurodeoxycholate]",44,reduced the expression,inhibition,inhibition,reduced the expression,inhibition,inhibition,inhibition,inhibition,360,"IC50 for IL-1β, times lower than that of TUDCA (IL-1β; HY209 vs TUDCA): 34 times; Col1α1 expression ([1]; 10 μM): reduced the expression; body weight changes [2]: no significant differences; lung weight [3, 5]: statistically significantly decreased; lung weight [3, 6]: statistically significantly decreased; pulmonary fibrosis (Ashcroft score) [4, 5]: statistically significantly decreased; pulmonary fibrosis (Ashcroft score) [4, 6]: statistically significantly decreased; α-SMA area (α-SMA; 10 mg/kg oral BID Day 7-21, compared to the pulmonary fibrosis group and the Natrosol administration group): significantly decreased; α-SMA area (α-SMA; HY209 60 mg/kg oral BID Day 7-21, compared to the pulmonary fibrosis group and the Natrosol administration group): significantly decreased; IC50 for TNF-α, times lower than that of TUDCA (TNF-α; HY209 vs TUDCA): 36 times"
"COC(=O)c1ccc2c(c1)NC(=O)/C2=C(\Nc1ccc(N(C)C(=O)CN2CCN(C)CC2)cc1)c1ccccc1 [Nintedanib, reference compound]",,,,,,,,,,,"lung weight [3, 7]: significant decrease; pulmonary fibrosis (Ashcroft score) [4, 7]: significant reduction; α-SMA area (α-SMA; Nintedanib 60 mg/kg oral BID Day 7-21, compared to both the pulmonary fibrosis group and the Natrosol administration group): significant reduction"
"C[C@H](CCC(=O)NCCS(=O)(=O)O)[C@H]1CC[C@H]2[C@@H]3[C@@H](O)C[C@@H]4C[C@H](O)CC[C@]4(C)[C@H]3CC[C@]12C [TUDCA, tauroursodeoxycholic acid, reference compound]",1500,increase in expression,did not demonstrate inhibitory effects,did not demonstrate inhibitory effects,increase in expression,did not demonstrate inhibitory effects,did not demonstrate inhibitory effects,inhibitory effects,inhibitory effects,13100,
